Test results reported in US20030187048A1, “Method for inhibiting skin lesion formation using histamine as the active ingredient” (priority 1991, published 2003).
Several values for one entry are separate records, joined by “and”; a condition that tells them apart may be missing. Identical values can stand only once. Like-named read-outs stand apart in the source and are kept apart here.

Key:
[1] = test system: Giant Papillary Conjunctivitis
Description: The composition of the present invention includes initial preparation of a gel base by adding 0.8% CARBOPOL 940, which is a vinyl polymer, to distilled water. This mixture was allowed to stand for several hours until the polymer was wetted and a gel was formed. This mixture then was blended by means of a ordinary high speed mixer, such as a Lightning Labmaster II until a homogenous mixture is formed. At this point, a neutralizing and emulsifying agent such as an amino alcohol was added, forming an emulsion. […] This composition then was applied topically to various types of lesions, as subsequently described. […] Propylparaben or methylparaben may be used as a preservative. For “unidose” dispensers containing only two to three drops, no preservatives are used, as it is known that preservatives in ophthalmic solutions frequently cause undesirable side effects. The term semi-synthetic water soluble polymer as used herein includes hydroxy methylcellulose or carboxy methylcellulose. Carbopol is widely available in different viscosities.
Treatment consisted of topical ophthalmic application of both ophthalmic solution concentrations to their randomly assigned patients 2 times a day for 5 days. […] Each patient was clinically evaluated at 48 hours and 120 hours following the initiation of treatment for 2 parameters of tissue damage associated with Giant Papillary Conjunctivitis. In addition, each patient was asked to evaluate subjectively 2 symptoms associated with Giant Papillary conjunctivitis 48 hours and 120 hours after treatment initiation. The percent reduction from the initial presentation of each of the parameters of tissue damage and the initial presentation for each additional symptom evaluated was calculated from 48 and 120 hour post treatment initiation data.
Patients were randomly assigned to one of two active levels being evaluated.
Clinical evaluation was performed at 48 hours and 120 hours post treatment initiation. Each patient was asked to subjectively evaluate 2 additional symptoms associated with Giant Papillary Conjunctivitis by rating each symptom on a scale of 0 to 5 with 0 representing no evidence of symptom and 5 representing the greatest evidence of the symptom ever by the patient. Clinical evaluation of tissue damage parameters was also done using the same scale of 0 to 5. Patient compliance with the treatment regimen and the use of other medications was also evaluated.

[2] = test system: cold sore (herpes labialis) lesions
[3] = 0.0067% ophth soln, 48 hr, per patient
[4] = 0.0067% ophth soln, 120 hr, per patient
[5] = 0.0067% ophth soln, scale 0 to 5, per patient

NCCc1c[nH]cn1 [IEP, 1H-imidazole-4-ethanamine,phosphate]
Exudation, Percent Reduction from Pre-Treatment Value [1, 3]: 50.0% and 75.0% and 100.0% | Itch/Burn, Percent Reduction from Pre-Treatment Value [1, 3]: 75.0% and 80.0% and 100.0% | Redness, Percent Reduction from Pre-Treatment Value [1, 3]: 50.0% and 66.67% and 100.0% | Contact Lens Tolerance, Percent Reduction from Pre-Treatment Value [1, 4]: 100.0% | Exudation, Percent Reduction from Pre-Treatment Value [1, 4]: 100.0% | Itch/Burn, Percent Reduction from Pre-Treatment Value [1, 4]: 100.0% | Redness, Percent Reduction from Pre-Treatment Value [1, 4]: 100.0% | Conjunctival Injection (redness), Value at 120 Hours [1, 5]: 0 | Contact Lens Tolerance, Value at 120 hours [1, 5]: 0 | Exudation, Value at 120 Hours [1, 5]: 0 | Itching and Burning, Value at 120 hours [1, 5]: 0 | Difference in percent reduction of tissue damage parameters and symptoms vs placebo ophthalmic solution ([1]; 0.0067% ophthalmic solution, except contact lens tolerance at 48 hours): either significant (p<0.05) or highly significant (p<.O1) | Decrease in size of the papilla ([1]; end of the 5 day treatment period, any of the patients): a significant decrease in size of the papilla was not noted | Untoward effects ([1]; in vivo): no untoward effects | Mean percentage decay rate of lesions, Conc. Mean ([2]; 0.00083% gel, 4 patients): 23.1% | Average % reduction in lesions from original size ([2]; 0.00083% gel, 48 Hours): 14.0% | Average % reduction in lesions from original size ([2]; 0.00083% gel, 72 Hours): 27.6% | Average % reduction in lesions from original size ([2]; 0.00083% gel, 96 Hours): 44.3% | Burning, average percent reduction of original symptom ([2]; 0.00083% gel, Day 1): 20.9% | Itching, average percent reduction of original symptom ([2]; 0.00083% gel, Day 1): 41.7% | Pain, average percent reduction of original symptom ([2]; 0.00083% gel, Day 1): 34.2% | Spreading, average percent reduction of original symptom ([2]; 0.00083% gel, Day 1): 0% | Swelling, average percent reduction of original symptom ([2]; 0.00083% gel, Day 1): 10.4% | Burning, average percent reduction of original symptom ([2]; 0.00083% gel, Day 2): 66.7% | Itching, average percent reduction of original symptom ([2]; 0.00083% gel, Day 2): 47.8% | Pain, average percent reduction of original symptom ([2]; 0.00083% gel, Day 2): 51.7% | Spreading, average percent reduction of original symptom ([2]; 0.00083% gel, Day 2): 0% | Swelling, average percent reduction of original symptom ([2]; 0.00083% gel, Day 2): 37.5% | Burning, average percent reduction of original symptom ([2]; 0.00083% gel, Day 3): 58.3% | Itching, average percent reduction of original symptom ([2]; 0.00083% gel, Day 3): 16.7% | Pain, average percent reduction of original symptom ([2]; 0.00083% gel, Day 3): 51.7% | Spreading, average percent reduction of original symptom ([2]; 0.00083% gel, Day 3): 11.1% | Burning, average percent reduction of original symptom ([2]; 0.00083% gel, Day 4): 75.0% | Itching, average percent reduction of original symptom ([2]; 0.00083% gel, Day 4): 11.1% | Pain, average percent reduction of original symptom ([2]; 0.00083% gel, Day 4): 65.0% | Spreading, average percent reduction of original symptom ([2]; 0.00083% gel, Day 4): 22.2% | Swelling, average percent reduction of original symptom ([2]; 0.00083% gel, Day 4): 75.0% | Burning, average percent reduction of original symptom ([2]; 0.00083% gel, Day 5): 77.8% | Itching, average percent reduction of original symptom ([2]; 0.00083% gel, Day 5): 41.7% | Pain, average percent reduction of original symptom ([2]; 0.00083% gel, Day 5): 64.4% | Spreading, average percent reduction of original symptom ([2]; 0.00083% gel, Day 5): 50.0% | Swelling, average percent reduction of original symptom ([2]; 0.00083% gel, Day 5): 55.6% | Burning, average percent reduction of original symptom ([2]; 0.00083% gel, Day 6): 66.7% | Itching, average percent reduction of original symptom ([2]; 0.00083% gel, Day 6): 75.0% | Pain, average percent reduction of original symptom ([2]; 0.00083% gel, Day 6): 66.7% | Spreading, average percent reduction of original symptom ([2]; 0.00083% gel, Day 6): 66.7% | Swelling, average percent reduction of original symptom ([2]; 0.00083% gel, Day 6): 0% | Mean percentage decay rate of lesions, Conc. Mean ([2]; 0.0033% gel, 5 patients): 24.1% | Average % reduction in lesions from original size ([2]; 0.0033% gel, 24 Hours): 11.8% | Average % reduction in lesions from original size ([2]; 0.0033% gel, 48 Hours): 44.6% | Average % reduction in lesions from original size ([2]; 0.0033% gel, 72 Hours): 57.8% | Average % reduction in lesions from original size ([2]; 0.0033% gel, 96 Hours): 61.6% | Burning, average percent reduction of original symptom ([2]; 0.0033% gel, Day 1): 21.7% | Itching, average percent reduction of original symptom ([2]; 0.0033% gel, Day 1): 23.4% | Spreading, average percent reduction of original symptom ([2]; 0.0033% gel, Day 1): 50.0% | Burning, average percent reduction of original symptom ([2]; 0.0033% gel, Day 2): 37.5% | Itching, average percent reduction of original symptom ([2]; 0.0033% gel, Day 2): 55.0% | Spreading, average percent reduction of original symptom ([2]; 0.0033% gel, Day 2): 50.0% | Swelling, average percent reduction of original symptom ([2]; 0.0033% gel, Day 2): 45.4% | Burning, average percent reduction of original symptom ([2]; 0.0033% gel, Day 3): 62.5% | Itching, average percent reduction of original symptom ([2]; 0.0033% gel, Day 3): 58.5% | Pain, average percent reduction of original symptom ([2]; 0.0033% gel, Day 3): 33.3% | Spreading, average percent reduction of original symptom ([2]; 0.0033% gel, Day 3): 16.7% | Swelling, average percent reduction of original symptom ([2]; 0.0033% gel, Day 3): 55.8% | Burning, average percent reduction of original symptom ([2]; 0.0033% gel, Day 4): 68.8% | Itching, average percent reduction of original symptom ([2]; 0.0033% gel, Day 4): 75.0% | Pain, average percent reduction of original symptom ([2]; 0.0033% gel, Day 4): 66.8% | Spreading, average percent reduction of original symptom ([2]; 0.0033% gel, Day 4): 100% | Swelling, average percent reduction of original symptom ([2]; 0.0033% gel, Day 4): 55.9% | Burning, average percent reduction of original symptom ([2]; 0.0033% gel, Day 5): 100% | Itching, average percent reduction of original symptom ([2]; 0.0033% gel, Day 5): 82.5% | Pain, average percent reduction of original symptom ([2]; 0.0033% gel, Day 5): 66.7% | Spreading, average percent reduction of original symptom ([2]; 0.0033% gel, Day 5): 100% | Swelling, average percent reduction of original symptom ([2]; 0.0033% gel, Day 5): 65.0% | Burning, average percent reduction of original symptom ([2]; 0.0033% gel, Day 6): 87.5% | Itching, average percent reduction of original symptom ([2]; 0.0033% gel, Day 6): 100% | Pain, average percent reduction of original symptom ([2]; 0.0033% gel, Day 6): 83.4% | Swelling, average percent reduction of original symptom ([2]; 0.0033% gel, Day 6): 66.7% | Mean percentage decay rate of lesions, Conc. Mean ([2]; 0.0067% gel, 4 patients): 54.4% | Average % reduction in lesions from original size ([2]; 0.0067% gel, 24 Hours): 37.5% | Average % reduction in lesions from original size ([2]; 0.0067% gel, 48 Hours): 67.0% | Average % reduction in lesions from original size ([2]; 0.0067% gel, 72 Hours): 86.2% | Average % reduction in lesions from original size ([2]; 0.0067% gel, 96 Hours): 98.9% | Burning, average percent reduction of original symptom ([2]; 0.0067% gel, Day 1): 50.0% | Itching, average percent reduction of original symptom ([2]; 0.0067% gel, Day 1): 50.0% | Pain, average percent reduction of original symptom ([2]; 0.0067% gel, Day 1): 66.7% | Spreading, average percent reduction of original symptom ([2]; 0.0067% gel, Day 1): 66.7% | Swelling, average percent reduction of original symptom ([2]; 0.0067% gel, Day 1): 50.0% | Burning, average percent reduction of original symptom ([2]; 0.0067% gel, Day 2): 100% | Itching, average percent reduction of original symptom ([2]; 0.0067% gel, Day 2): 100% | Pain, average percent reduction of original symptom ([2]; 0.0067% gel, Day 2): 83.4% | Spreading, average percent reduction of original symptom ([2]; 0.0067% gel, Day 2): 100% | Swelling, average percent reduction of original symptom ([2]; 0.0067% gel, Day 2): 83.3% | Burning, average percent reduction of original symptom ([2]; 0.0067% gel, Day 3): 100% | Itching, average percent reduction of original symptom ([2]; 0.0067% gel, Day 3): 100% | Pain, average percent reduction of original symptom ([2]; 0.0067% gel, Day 3): 55.6% | Spreading, average percent reduction of original symptom ([2]; 0.0067% gel, Day 3): 100% | Swelling, average percent reduction of original symptom ([2]; 0.0067% gel, Day 3): 54.2% | Burning, average percent reduction of original symptom ([2]; 0.0067% gel, Day 4): 100% | Itching, average percent reduction of original symptom ([2]; 0.0067% gel, Day 4): 75.0% | Pain, average percent reduction of original symptom ([2]; 0.0067% gel, Day 4): 55.6% | Spreading, average percent reduction of original symptom ([2]; 0.0067% gel, Day 4): 100% | Swelling, average percent reduction of original symptom ([2]; 0.0067% gel, Day 4): 61.7% | Burning, average percent reduction of original symptom ([2]; 0.0067% gel, Day 5): 100% | Itching, average percent reduction of original symptom ([2]; 0.0067% gel, Day 5): 100% | Pain, average percent reduction of original symptom ([2]; 0.0067% gel, Day 5): 100% | Spreading, average percent reduction of original symptom ([2]; 0.0067% gel, Day 5): 100% | Swelling, average percent reduction of original symptom ([2]; 0.0067% gel, Day 5): 66.7% | Spreading, average percent reduction of original symptom ([2]; 0.0067% gel, Day 6): 100% | Swelling, average percent reduction of original symptom ([2]; 0.0067% gel, Day 6): 100% | Reducing lesion size over time vs placebo (analysis of variance) ([2]; 0.0067% treatment vs placebo, p<0.05): significantly more effective | Untoward reactions ([2]; in vivo): no untoward reactions
